Test results reported in patent US20250382344A1, “Soluble GLP1/GIP/NPY2 Receptor Triple Agonists” (Boehringer Ingelheim International GmH, priority 2024, published 2025).
Read-outs that look alike come from different tables or passages of the source. *1 amine or outer side, *2 acyl side, *3 side chain or, on linkers, in order; H or OH if unused. Where a SMILES comes first, the peptide text is derived from it. Side-chain parts run from the residue outwards. [ ]: non-standard residue; d: D form. The star is where a group is joined. Argψ(CH2NH)TyrNH2 = N=C(N)NCCC[C@@H](CN[C@@H](Cc1ccc(O)cc1)C(N)=O)N*; C18 diacid = O=C(O)CCCCCCCCCCCCCCCCC(=O)*; γGlu = O=C(O)[C@H](CCC(=O)[*:2])N[*:1]; Aib = CC(C)(N)C(=O)O

Tests used:
hNPY2R = molecular target: T1, hNPY2R (Homo sapiens, UniProt P49146); assay: hNPY2R CreLuc assay in 0.5% and 100% plasma (HEK-293 CRE-luciferase reporter cells); assay type: cell-based; conditions: HEK-293 reporter cells
T1 construct: expressed in transfected cells; host or cells: HEK-293 CRE-luciferase reporter cells
T1 sequence (P49146 1-381): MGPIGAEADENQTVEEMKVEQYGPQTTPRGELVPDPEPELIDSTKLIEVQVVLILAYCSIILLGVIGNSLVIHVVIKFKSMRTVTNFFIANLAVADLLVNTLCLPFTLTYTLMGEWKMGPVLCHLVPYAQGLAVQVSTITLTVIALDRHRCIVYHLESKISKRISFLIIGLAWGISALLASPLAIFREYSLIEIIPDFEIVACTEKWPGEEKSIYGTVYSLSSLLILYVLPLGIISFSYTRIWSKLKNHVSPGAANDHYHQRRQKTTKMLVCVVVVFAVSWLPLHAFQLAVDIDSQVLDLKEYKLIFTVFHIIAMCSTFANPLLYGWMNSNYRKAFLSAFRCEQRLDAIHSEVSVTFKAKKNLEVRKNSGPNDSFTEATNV

hGIPR = molecular target: T2, hGIPR (Homo sapiens, UniProt P48546); assay: hGIPR CreLuc assay in 0.5% and 100% plasma (CHO CRE-luciferase reporter cells); assay type: cell-based
T2 construct: expressed in transfected cells; host or cells: CHO CRE-luciferase reporter cells
T2 sequence (P48546 22-466): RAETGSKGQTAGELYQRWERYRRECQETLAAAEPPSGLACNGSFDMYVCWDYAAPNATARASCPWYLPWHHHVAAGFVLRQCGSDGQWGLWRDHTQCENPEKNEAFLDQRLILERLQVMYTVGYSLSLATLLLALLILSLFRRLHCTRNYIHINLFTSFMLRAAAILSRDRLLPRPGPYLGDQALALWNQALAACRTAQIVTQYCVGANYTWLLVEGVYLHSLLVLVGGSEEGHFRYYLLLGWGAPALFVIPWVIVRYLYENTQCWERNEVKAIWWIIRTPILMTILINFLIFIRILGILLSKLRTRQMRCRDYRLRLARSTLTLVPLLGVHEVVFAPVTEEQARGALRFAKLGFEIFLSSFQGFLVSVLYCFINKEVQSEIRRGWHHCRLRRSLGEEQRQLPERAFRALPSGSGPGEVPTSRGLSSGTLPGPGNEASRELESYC

hGLP1R = molecular target: T3, hGLP1R (Homo sapiens, UniProt P43220); assay: hGLP1R CreLuc assay in 0.5% and 100% plasma (HEK-293 CRE-luciferase reporter cells); assay type: cell-based; conditions: HEK-293 reporter cells
T3 construct: expressed in transfected cells; host or cells: HEK-293 CRE-luciferase reporter cells
T3 sequence (P43220 24-463): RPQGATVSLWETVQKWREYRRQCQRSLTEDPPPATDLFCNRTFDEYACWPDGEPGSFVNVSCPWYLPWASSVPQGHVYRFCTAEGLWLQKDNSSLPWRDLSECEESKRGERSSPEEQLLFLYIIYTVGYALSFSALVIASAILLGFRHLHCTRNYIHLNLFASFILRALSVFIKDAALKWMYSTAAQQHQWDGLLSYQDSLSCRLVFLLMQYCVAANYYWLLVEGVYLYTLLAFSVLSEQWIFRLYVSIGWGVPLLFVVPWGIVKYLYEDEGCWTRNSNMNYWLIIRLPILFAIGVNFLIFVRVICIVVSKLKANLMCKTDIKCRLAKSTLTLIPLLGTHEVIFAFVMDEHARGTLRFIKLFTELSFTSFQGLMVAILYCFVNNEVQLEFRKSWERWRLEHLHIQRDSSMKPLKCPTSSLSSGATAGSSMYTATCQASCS

[1] = Solubility in 0.1 M phosphate buffer at pH 7; assay type: physicochemical; conditions: 0.1 M phosphate buffer at pH 7, 10 mg/mL final peptide concentration, shaking 2 hours at room temperature, peptides as TFA-salts; measured sample pH 6.5-7.0
[2] = 100% human plasma, read-out: hNPY2R 100% hP
[3] = 0.5% human plasma, read-out: hGIPR 0.5% hP
[4] = 100% human plasma, read-out: hGIPR 100% hP
[5] = 0.5% human plasma, read-out: hGLP1R 0.5% hP
[6] = 100% human plasma, read-out: hGLP1R 100% hP

Structure (SMILES) | EC50 (hNPY2R; [2]) | EC50 (hGIPR; [3]) | EC50 (hGIPR; [4]) | EC50 (hGLP1R; [5]) | solubility at 2 h [1] | EC50 (hGLP1R; [6]) | EC50 (hNPY2R; 0.5% human plasma, read-out: hNPY2R 0.5% hP)
CC[C@H](C)[C@H](NC(=O)[C@H](CC(C)C)NC(=O)[C@H](Cc1c[nH]cn1)NC(=O)[C@H](CCCNC(=N)N)NC(=O)[C@@H](NC(=O)[C@H](Cc1ccccc1)NC(=O)[C@H](CCC(=O)O)NC(=O)C(C)(C)NC(=O)[C@H](CCC(N)=O)NC(=O)[C@H](C)NC(=O)[C@H](CCC(N)=O)NC(=O)[C@H](CCCCN)NC(=O)[C@H](CCC(=O)O)NC(=O)[C@H](CC(C)C)NC(=O)C(C)(C)NC(=O)[C@@H](NC(=O)[C@H](CO)NC(=O)[C@H](Cc1ccc(O)cc1)NC(=O)[C@H](CC(=O)O)NC(=O)[C@H](CO)NC(=O)[C@@H](NC(=O)[C@H](Cc1ccccc1)NC(=O)[C@@H](NC(=O)CNC(=O)[C@H](CCC(=O)O)NC(=O)C(C)(C)NC(=O)[C@@H](N)Cc1ccc(O)cc1)[C@@H](C)O)[C@@H](C)O)[C@@H](C)CC)C(C)C)C(=O)N[C@@H](CC(N)=O)C(=O)N[C@@H](CCCCNC(=O)COCCOCCNC(=O)CC[C@H](NC(=O)CC[C@H](NC(=O)CC[C@H](NC(=O)CC[C@H](NC(=O)CC[C@H](NC(=O)CCCCCCCCCCCCCCCCC(=O)O)C(=O)O)C(=O)O)C(=O)O)C(=O)O)C(=O)O)C(=O)NC(C)(C)C(=O)N[C@H](C(=O)N[C@@H](CCCNC(=N)N)C(=O)N[C@@H](CCC(N)=O)C(=O)N[C@@H](CCCNC(=N)N)C(=O)N[C@@H](Cc1ccc(O)cc1)C(N)=O)[C@@H](C)O [Compound 8, Y-Aib-E-G-T-F-T-S-D-Y-S-I-Aib-L-E-K-Q-A-Q-Aib-E-F-V-R-H-L-I-N-K(1,3)-Aib-T-R-Q-R-Y-NH2.C18DA-gGlu-gGlu-gGlu-gGlu-gGlu-OEG(1,2)] | 476 nM | 0.3 nM | 14.2 nM | 0.3 nM | 4900 µg/mL |  | 
CC[C@H](C)[C@H](NC(=O)[C@H](CC(C)C)NC(=O)[C@H](Cc1c[nH]cn1)NC(=O)[C@H](CCCNC(=N)N)NC(=O)[C@H](CC(C)C)NC(=O)[C@H](Cc1ccccc1)NC(=O)[C@H](C)NC(=O)C(C)(C)NC(=O)[C@H](CCC(N)=O)NC(=O)[C@H](C)NC(=O)[C@H](CCC(N)=O)NC(=O)[C@H](CCCCN)NC(=O)[C@H](CCC(=O)O)NC(=O)[C@H](CC(C)C)NC(=O)C(C)(C)NC(=O)[C@@H](NC(=O)[C@H](CO)NC(=O)[C@H](Cc1ccc(O)cc1)NC(=O)[C@H](CC(=O)O)NC(=O)[C@H](CO)NC(=O)[C@@H](NC(=O)[C@H](Cc1ccccc1)NC(=O)[C@@H](NC(=O)CNC(=O)[C@H](CCC(=O)O)NC(=O)C(C)(C)NC(=O)[C@@H](N)Cc1ccc(O)cc1)[C@@H](C)O)[C@@H](C)O)[C@@H](C)CC)C(=O)N[C@@H](CC(N)=O)C(=O)N[C@@H](CCCCNC(=O)[C@@H](N)CCCCNC(=O)CC[C@H](NC(=O)CC[C@H](NC(=O)CC[C@H](NC(=O)CC[C@H](NC(=O)CC[C@H](NC(=O)CC[C@H](NC(=O)CCCCCCCCCCCCCCCCC(=O)O)C(=O)O)C(=O)O)C(=O)O)C(=O)O)C(=O)O)C(=O)O)C(=O)NC(C)(C)C(=O)N[C@H](C(=O)N[C@@H](CCCNC(=N)N)C(=O)N[C@@H](CCC(N)=O)C(=O)N[C@@H](CCCNC(=N)N)C(=O)N[C@@H](Cc1ccc(O)cc1)C(N)=O)[C@@H](C)O [Compound 37, Y-Aib-E-G-T-F-T-S-D-Y-S-I-Aib-L-E-K-Q-A-Q-Aib-A-F-L-R-H-L-I-N-K(1,3)-Aib-T-R-Q-R-Y-NH2.C18DA-gGlu-gGlu-gGlu-gGlu-gGlu-gGlu-eLys(1,2)] | 41.3 nM |  |  | 5.8 nM | 9000 µg/mL |  | 
CC[C@H](C)[C@H](NC(=O)[C@H](CC(C)C)NC(=O)[C@H](Cc1c[nH]cn1)NC(=O)[C@H](CCCNC(=N)N)NC(=O)[C@@H](NC(=O)[C@H](Cc1ccccc1)NC(=O)[C@H](C)NC(=O)C(C)(C)NC(=O)[C@H](CCC(N)=O)NC(=O)[C@H](C)NC(=O)[C@H](CCC(N)=O)NC(=O)[C@H](CCCCN)NC(=O)[C@H](CCC(=O)O)NC(=O)[C@H](CC(C)C)NC(=O)C(C)(C)NC(=O)[C@@H](NC(=O)[C@H](CO)NC(=O)[C@H](Cc1ccc(O)cc1)NC(=O)[C@H](CC(=O)O)NC(=O)[C@H](CO)NC(=O)[C@@H](NC(=O)[C@H](Cc1ccccc1)NC(=O)[C@H](C)NC(=O)CNC(=O)[C@H](CCC(=O)O)NC(=O)C(C)(C)NC(=O)[C@@H](N)Cc1ccc(O)cc1)[C@@H](C)O)[C@@H](C)CC)C(C)C)C(=O)N[C@@H](CC(N)=O)C(=O)N[C@@H](CCCCNC(=O)[C@@H](N)CCCCNC(=O)CC[C@H](NC(=O)CC[C@H](NC(=O)CC[C@H](NC(=O)CC[C@H](NC(=O)CC[C@H](NC(=O)CC[C@H](NC(=O)CCCCCCCCCCCCCCCCC(=O)O)C(=O)O)C(=O)O)C(=O)O)C(=O)O)C(=O)O)C(=O)O)C(=O)NC(C)(C)C(=O)N[C@H](C(=O)N[C@@H](CCCNC(=N)N)C(=O)N[C@@H](CCC(N)=O)C(=O)N[C@@H](CCCNC(=N)N)C(=O)N[C@@H](Cc1ccc(O)cc1)C(N)=O)[C@@H](C)O [Compound 85, Y-Aib-E-G-A-F-T-S-D-Y-S-I-Aib-L-E-K-Q-A-Q-Aib-A-F-V-R-H-L-I-N-K(1,3)-Aib-T-R-Q-R-Y-NH2.C18DA-gGlu-gGlu-gGlu-gGlu-gGlu-gGlu-eLys(1,2)] | 16.2 nM |  |  |  | 9400 µg/mL | 14.5 nM | 
CC[C@H](C)[C@H](NC(=O)[C@H](CC(C)C)NC(=O)[C@H](Cc1c[nH]cn1)NC(=O)[C@H](CCCNC(=N)N)NC(=O)[C@@H](NC(=O)[C@H](Cc1ccccc1)NC(=O)[C@H](C)NC(=O)C(C)(C)NC(=O)[C@H](CCC(N)=O)NC(=O)[C@H](C)NC(=O)[C@H](CCC(N)=O)NC(=O)[C@H](CCCCN)NC(=O)[C@H](CCC(=O)O)NC(=O)[C@H](CC(C)C)NC(=O)C(C)(C)NC(=O)[C@@H](NC(=O)[C@H](CO)NC(=O)[C@H](Cc1ccc(O)cc1)NC(=O)[C@H](CC(=O)O)NC(=O)[C@H](CO)NC(=O)[C@@H](NC(=O)[C@H](Cc1ccccc1)NC(=O)[C@@H](NC(=O)CNC(=O)[C@H](CCC(=O)O)NC(=O)C(C)(C)NC(=O)[C@@H](N)Cc1ccc(O)cc1)[C@@H](C)O)[C@@H](C)O)[C@@H](C)CC)C(C)C)C(=O)N[C@@H](CC(N)=O)C(=O)N[C@@H](CCCCNC(=O)CC[C@H](NC(=O)CC[C@H](NC(=O)CC[C@H](NC(=O)CC[C@H](NC(=O)CC[C@H](NC(=O)CCCCCCCCCCCCCCCCC(=O)O)C(=O)O)C(=O)O)C(=O)O)C(=O)O)C(=O)O)C(=O)NC(C)(C)C(=O)N[C@H](C(=O)N[C@@H](CCCNC(=N)N)C(=O)N[C@@H](CCC(N)=O)C(=O)N[C@@H](CCCNC(=N)N)CN[C@@H](Cc1ccc(O)cc1)C(N)=O)[C@@H](C)O [Compound 96, Y-Aib-E-G-T-F-T-S-D-Y-S-I-Aib-L-E-K-Q-A-Q-Aib-A-F-V-R-H-L-I-N-K(1,3)-Aib-T-R-Q-dOR-Y-NH2.C18DA-gGlu-gGlu-gGlu-gGlu-gGlu(1,2)] (H-Y[Aib]EGTFTSDYSI[Aib]LEKQAQ[Aib]AFVRHLINK([γGlu-γGlu-γGlu-γGlu-γGlu-C18 diacid])[Aib]TRQ-{Argψ(CH2NH)TyrNH2}) | 125 nM | 0.3 nM | 1.7 nM | 0.9 nM |  | 1.7 nM | 
CC[C@H](C)[C@H](NC(=O)[C@H](CC(C)C)NC(=O)[C@H](Cc1c[nH]cn1)NC(=O)[C@H](CCCNC(=N)N)NC(=O)[C@@H](NC(=O)[C@H](Cc1ccccc1)NC(=O)[C@H](C)NC(=O)C(C)(C)NC(=O)[C@H](CCC(=O)O)NC(=O)[C@H](C)NC(=O)[C@H](CCC(N)=O)NC(=O)[C@H](CCCCN)NC(=O)[C@H](CCC(=O)O)NC(=O)[C@H](CC(C)C)NC(=O)C(C)(C)NC(=O)[C@@H](NC(=O)[C@H](CO)NC(=O)[C@H](Cc1ccc(O)cc1)NC(=O)[C@H](CC(=O)O)NC(=O)[C@H](CO)NC(=O)[C@@H](NC(=O)[C@H](Cc1ccccc1)NC(=O)[C@@H](NC(=O)CNC(=O)[C@H](CCC(=O)O)NC(=O)C(C)(C)NC(=O)[C@@H](N)Cc1ccc(O)cc1)[C@@H](C)O)[C@@H](C)O)[C@@H](C)CC)C(C)C)C(=O)N[C@@H](CC(N)=O)C(=O)N[C@@H](CCCCNC(=O)[C@@H](N)CCCCNC(=O)CC[C@H](NC(=O)CC[C@H](NC(=O)CC[C@H](NC(=O)CC[C@H](NC(=O)CC[C@H](NC(=O)CC[C@H](NC(=O)CCCCCCCCCCCCCCCCCCC(=O)O)C(=O)O)C(=O)O)C(=O)O)C(=O)O)C(=O)O)C(=O)O)C(=O)NC(C)(C)C(=O)N[C@H](C(=O)N[C@@H](CCCNC(=N)N)C(=O)N[C@@H](CCC(N)=O)C(=O)N[C@@H](CCCNC(=N)N)C(=O)N[C@@H](Cc1ccc(O)cc1)C(N)=O)[C@@H](C)O [Compound 104, Y-Aib-E-G-T-F-T-S-D-Y-S-I-Aib-L-E-K-Q-A-E-Aib-A-F-V-R-H-L-I-N-K(1,3)-Aib-T-R-Q-R-Y-NH2.C20DA-gGlu-gGlu-gGlu-gGlu-gGlu-gGlu-eLys(1,2)] |  |  |  | 2 nM | 9400 µg/mL |  | 17.5 nM
